Patent publication US20090163461A1, “Ligand for Vesicular Acetylcholine Transporter” (priority 2005, published 2009)
Read-outs that look alike come from different tables or passages of the source.

Experiments:
VAChT in the brain = target: T1, VAChT in the brain (Rattus norvegicus, UniProt Q62666); test: Inhibitory effects of non-radioactive ligands on cerebral distribution of (−)-[^11C]-o-methylvesamicol in rats; assay type: in vivo; settings: 30 minutes; for local accumulation of (−)-[^11C]-o-MeVES in the brain, effect of co-administered non-radioactive ligand: 500 nmol per kg i.v.; for Radioactivity level (% ID/g) Blood / Radioactivity level (% ID/g) Brain (other than above) / Radioactivity level (% ID/g) Cerebellum / Radioactivity level (% ID/g) Cerebral cortex / Radioactivity level (% ID/g) Hippocampus / Radioactivity level (% ID/g) Medulla oblongata / Radioactivity level (% ID/g) Striate body / Radioactivity level (% ID/g) Brain (whole): tracer (−)-[^11C]-o-MeVES 20 MBq i.v. together with ligand 500 nmol per kg, mean ± S.D. n = 4-6
T1 construct: from tissue; host or cells: brain of living rats, tissue counted or sectioned after killing
T1 sequence (Q62666 1-530): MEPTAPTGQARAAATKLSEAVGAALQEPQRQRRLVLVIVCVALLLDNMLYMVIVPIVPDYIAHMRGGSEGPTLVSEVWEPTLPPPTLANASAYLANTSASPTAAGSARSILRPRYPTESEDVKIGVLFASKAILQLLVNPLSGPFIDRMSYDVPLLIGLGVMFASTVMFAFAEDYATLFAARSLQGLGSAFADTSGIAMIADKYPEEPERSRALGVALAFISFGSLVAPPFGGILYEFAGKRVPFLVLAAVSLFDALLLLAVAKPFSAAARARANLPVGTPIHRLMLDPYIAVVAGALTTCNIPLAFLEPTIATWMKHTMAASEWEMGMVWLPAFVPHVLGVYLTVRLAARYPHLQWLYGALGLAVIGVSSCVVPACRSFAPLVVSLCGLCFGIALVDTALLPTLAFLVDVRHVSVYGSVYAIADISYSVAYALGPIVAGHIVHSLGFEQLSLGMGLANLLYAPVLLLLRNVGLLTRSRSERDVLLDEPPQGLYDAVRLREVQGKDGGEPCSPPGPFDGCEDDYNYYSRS
Protocol: To the caudal vein of each rat, an injection (0.1 ml) containing 20 MBq of (−)-[^11C]-o-MeVES and 0.1 ml (equivalent to 500 nmol per kg body weight) of a DMSO solution containing each of the above-described non-radioactive ligands were administered together. Thirty minutes after the administration, the rats were killed by cervical dislocation, and blood was drawn from the heart using a syringe, after which the brain was extirpated from each rat. The extirpated brain was divided into the cerebral cortex, hippocampus, striate body, cerebellum, medulla oblongata, and other parts, and the radioactivity in each tissue was measured using a gamma counter. Each tissue was also weighed.
For control, an injection (0.1 ml) containing 20 MBq of (−)-[^11C]-o-MeVES and a ligand-free DMSO solution (0.1 ml) were administered to the caudal vein of each rat, and measurements were taken in the same manner as described above.

VAChT [1] = target: T2, VAChT (Rattus norvegicus, UniProt Q62666); test: biochemical
T2 sequence (Q62666 1-530): T1 sequence (Q62666 1-530)
Protocol: (§1) The affinity of (−)-o-MeVES for VAChT and sigma receptors (σ-1, σ-2) was examined by in vitro drug inhibition experiments.
(§2) First, the brain and liver were extirpated from a rat, a 0.32 M sucrose solution in an amount by weight 10 times the weight of each tissue was added, and each tissue was ground using a Teflon homogenizer. Next, the ground tissue solution was centrifuged at 1000 g for 10 minutes, and the precipitated fraction was removed. Furthermore, the supernatant was centrifuged at 55000 g for 60 minutes, and the precipitated tissue was added to, and suspended in, 50 mM Tris-HCl buffer solution/0.32 M sucrose solution (pH 7.8).
For each test compound, samples at 10 different concentrations (concentrations set at 10 levels in the range of 10^−5 M to 10^−10 M) were prepared.
For each sample, the RI (100 μl), sample (50 μl), 50 mM Tris-HCl buffer solution (pH 7.8) (100 μl), 2 μM DTG solution (50 μl) (200 nM as the final concentration), and, finally, the prepared rat cerebral membrane (500-900 μg (protein weight)/200 μl) was added to a test tube, and they were reacted at 37° C. for 60 minutes. The test tube was cooled with ice to stop the reaction, and the rat cerebral membrane was immediately adsorbed to a glass filter using a cell harvester. After the glass filter was washed with 50 mM Tris-HCl buffer solution (pH 7.8) (5 ml) three times, the rat cerebral membrane, together with the glass filter, was placed in a liquid scintillation vial, and a liquid scintillator was added, after which radioactivity was measured using a liquid scintillation counter.
(§3) Ki=IC50/(1+C/Kd)(nM) formula

σ-2 receptor = target: T3, σ-2 receptor (Rattus norvegicus, UniProt Q5U3Y7); test: biochemical; assay type: binding
T3 construct: except that rat liver membranes (300-600 μg (protein weight)/200 μl) were used; from tissue; host or cells: rat liver membranes
T3 sequence (Q5U3Y7 1-176): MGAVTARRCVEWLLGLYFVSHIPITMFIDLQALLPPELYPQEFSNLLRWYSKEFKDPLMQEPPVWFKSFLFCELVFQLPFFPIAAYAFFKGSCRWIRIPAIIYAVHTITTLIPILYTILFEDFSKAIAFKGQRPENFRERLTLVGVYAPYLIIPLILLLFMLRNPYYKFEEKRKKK
Protocol: as §1, §2
3 nM [^3H]DTG ([^3H]-1,3-di-o-tolylguanidine) was used as the radioisotope (RI) for the σ-2 receptor. […] A test was performed in the same procedures as those for the test of affinity for the […] except that rat liver membranes (300-600 μg (protein weight)/200 μl) were used.
as §3

σ-1 receptor = σ-1 receptor (Rattus norvegicus, UniProt Q9R0C9); test: biochemical
Sequence of σ-1 receptor (Q9R0C9 whole entry): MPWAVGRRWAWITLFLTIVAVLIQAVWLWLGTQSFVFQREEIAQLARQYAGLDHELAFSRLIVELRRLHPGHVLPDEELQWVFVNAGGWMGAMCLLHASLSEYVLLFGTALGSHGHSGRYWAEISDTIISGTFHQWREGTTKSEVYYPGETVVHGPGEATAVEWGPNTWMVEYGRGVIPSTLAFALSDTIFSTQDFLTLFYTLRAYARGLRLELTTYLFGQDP
Protocol: as §1, §2, §3

VAChT [2] = target: T2, VAChT; design: the brain and liver were extirpated from a rat; from tissue; host or cells: rat brain (cerebral membranes); settings: in vitro, rat brain; mean±standard deviation; Life Sciences 71 (2002) 1591-1598; read-out: Ki value, affinity for VAChT; cited from earlier work
δ-2 receptor = target: T4, δ-2 receptor (Rattus norvegicus, UniProt Q5U3Y7); settings: in vitro, rat brain; mean±standard deviation; Life Sciences 71 (2002) 1591-1598; read-out: Ki value, affinity for δ-2 receptor; cited from earlier work
T4 construct: as a result of in vitro experiments using the rat brain
T4 sequence (Q5U3Y7 1-176): T3 sequence (Q5U3Y7 1-176)

δ-1 receptor = target: T5, δ-1 receptor (Rattus norvegicus, UniProt Q9R0C9); settings: in vitro, rat brain; mean±standard deviation; Life Sciences 71 (2002) 1591-1598; read-out: Ki value, affinity for δ-1 receptor; cited from earlier work
T5 construct: as a result of in vitro experiments using the rat brain; host or cells: rat brain
T5 sequence (Q9R0C9 whole entry): as above

[3] = compared with (−)-o-iodovesamicol

| Structure (SMILES) | local accumulation of (−)-[^11C]-o-MeVES in the brain, effect of co-administered non-radioactive ligand (VAChT in the brain) | Radioactivity level (% ID/g) Blood (VAChT in the brain) | Radioactivity level (% ID/g) Brain (other than above) (VAChT in the brain) | Radioactivity level (% ID/g) Cerebellum (VAChT in the brain) | Radioactivity level (% ID/g) Cerebral cortex (VAChT in the brain) | Radioactivity level (% ID/g) Hippocampus (VAChT in the brain) | Radioactivity level (% ID/g) Medulla oblongata (VAChT in the brain) | Radioactivity level (% ID/g) Striate body (VAChT in the brain) | Radioactivity level (% ID/g) Brain (whole) (VAChT in the brain) | IC50 (VAChT [1]) | Ki (VAChT [1]) | IC50 (σ-2 receptor) | Ki (σ-2 receptor) | other results |
| --- | --- | --- | --- | --- | --- | --- | --- | --- | --- | --- | --- | --- | --- | --- |
| CC(C)=CCN1CCC2(C)c3cc(O)ccc3CC1C2C (single isomer, unassigned; (+)) [(+)-Pentazocine, (+)-pentazocine] | not inhibited | 0.12 ± 0.01 % ID/g | 2.52 ± 0.43 % ID/g | 2.07 ± 0.31 % ID/g | 2.72 ± 0.40 % ID/g | 2.59 ± 0.44 % ID/g | 2.83 ± 0.45 % ID/g | 2.39 ± 0.40 % ID/g | 2.52 ± 0.40 % ID/g | 830 nM | 315 ± 121 nM | – | – | – |
| OC1CCCCC1N1CCC(c2ccccc2)CC1 (single isomer, unassigned; (-)) [(−)-Vesamicol, 2-(4-Phenylpiperidino)-cyclohexanol] | inhibited | 0.13 ± 0.01 % ID/g | 0.69 ± 0.04 % ID/g | 0.62 ± 0.03 % ID/g | 0.71 ± 0.04 % ID/g | 0.66 ± 0.05 % ID/g | 0.80 ± 0.08 % ID/g | 0.72 ± 0.03 % ID/g | 0.70 ± 0.04 % ID/g | 13 nM | 4.4 ± 0.6 nM | 420 nM | 346 ± 37 nM | – |
| Cc1ccccc1C1CCN(C2CCCCC2O)CC1 (single isomer, unassigned; (-)) [(−)-o-MeVES, (−)-2-(4-(2-methylphenyl)piperidino)cyclohexanol] | inhibited | 0.14 ± 0.02 % ID/g | 0.63 ± 0.10 % ID/g | 0.60 ± 0.07 % ID/g | 0.70 ± 0.10 % ID/g | 0.71 ± 0.08 % ID/g | 0.74 ± 0.09 % ID/g | 0.71 ± 0.10 % ID/g | 0.68 ± 0.10 % ID/g | 16 nM | 6.7 ± 0.4 nM | 320 nM | 266 ± 28 nM | 6-1 receptor/VAChT ratio of the Ki values (VAChT [1]; [3]): higher; 6-2 receptor/VAChT ratio of the Ki values (VAChT [1]; [3]): higher; melting point: 116 to 118 °C; IC50 (σ-1 receptor): 38 nM; Ki (σ-1 receptor): 33.7 ± 5.9 nM |
| OC1CCCCC1N1CCC(c2ccccc2I)CC1 (single isomer, unassigned; (-)) [(−)-o-iodovesamicol] | – | – | – | – | – | – | – | – | – | – | – | – | – | Ki (VAChT [2]): 15 ± 2.9 nM; Ki (δ-2 receptor): 554 ± 137 nM; Ki (δ-1 receptor): 62.2 ± 12 nM |
| COc1ccc(CCN2CCN(CCCc3ccccc3)CC2)cc1OC [SA4503, 1-(3,4-dimethoxyphenethyl)-4-(3-phenyl-propyl)piperazine] | inhibited | 0.14 ± 0.02 % ID/g | 0.55 ± 0.05 % ID/g | 0.52 ± 0.07 % ID/g | 0.62 ± 0.08 % ID/g | 0.84 ± 0.18 % ID/g | 0.66 ± 0.08 % ID/g | 0.61 ± 0.07 % ID/g | 0.59 ± 0.07 % ID/g | 120 nM | 50.2 ± 7.2 nM | 280 nM | 242 ± 17 nM | – |
